{
  "source": "patent US20220380724A1",
  "about": "“COMPOSITION FOR PROMOTING PROLIFERATION OF STEM CELLS, CONTAINING, AS ACTIVE INGREDIENT, CP1P OR PHARMACEUTICALLY ACCEPTABLE SALT THEREOF” (INDUSTRY-UNIVERSITY COOPERATION FOUNDATION HANYANG …, priority 2019, published 2022)",
  "assay_type_in_all_cases": "cell-based, human",
  "key": {"hPSCs (CHA-ESC15)": {"test_system": "hPSCs (CHA-ESC15)", "test": "hPSC cell proliferation ability (optical microscopy and cell count)", "conditions": "cultured 6 days; for cell proliferation rate increase compared to the control group (FIG. 3): hPSCs, 10 nM, counted day 7, control DMSO; for apoptosis seen in micrographs (FIG. 2): hPSCs, 50, 100 or 500 nM", "protocol": "They were shaken up and down, left and right to evenly disperse the cells and cultured within 24 hours in a 37° C. CO2 incubator. The culture medium was replaced with the E8 culture medium from which Y27632 was removed, and then the cells were cultured by replacing the culture medium every day until the next passage.\nOn the 7th day, the cells were observed using an optical microscope at a magnification of 100 times.\nIn addition, in order to measure the number of cells, the culture medium of the cells was removed on the 7th day of culture, and they were washed once with PBS. Then, for PBS-removed cells, cell dissociation buffer ([…]) was used to cause single-cell. The separated cells were centrifuged at 1000 rpm for 2 minutes to remove the buffer. Then, the cells were suspended in an E8 medium, and the number of cells was measured using EVE™ Automated Cell Counter (NanoEnTek).\nMeanwhile, the control group was tested in the same manner as above, except that hPSCs were treated with DMSO (AppliChem GE, A3672,0100).\nThe culture was performed for 6 days, and hPSCs were observed on the 7th day. The proliferation rate was calculated as {(total number of cells in P1P, cP1P, or SW treatment group)/(total number of cells in the control group)}×100."}, "hPSCs [1]": {"test_system": "hPSCs", "test": "Alkaline phosphatase staining of hPSCs (undifferentiation ability)", "conditions": "10 nM, compared to DMSO control", "protocol": "In order to check whether the differentiation ability of hPSCs was changed by cP1P treatment, hPSCs were treated with 10 nM cP1P or a control group (vehicle, DMSO) in the same manner as in Example 2."}, "hPSCs [2]": {"test_system": "hPSCs", "test": "hPSC proliferation during subculture (total number of cells)", "conditions": "continuous 10 nM, subculture 3 times, P<0.01", "protocol": "In order to check whether the change in hPSCs proliferation ability by cP1P treatment is maintained during subculture, hPSCs were continuously treated with 10 nM cP1P in the same manner as in Example 1, and after subculture 3 times, the proliferation change of hPSCs was confirmed."}, "hPSCs [3]": {"test_system": "hPSCs", "test": "hPSC cell cycle by PI flow cytometry", "conditions": "10 nM", "protocol": "For flow cytometry, hPSCs were treated with 10 nM cP1P in the same manner as in Example 1, and hPSCs were separated using cell dissociation buffer (Thermo Fisher Scientific US, A1110501), and harvested cells were washed three times with DPBS (pH 7.4). After washing, the supernatant was removed. During washing, cold 70% (v/v) ethanol was added dropwise to the cell pellet. The cells were fixed at 4° C. for 1 hour and washed 3 times with DPBS (pH 7.4). After centrifugation at 2,000 rpm for 5 minutes, 50 uL of 100 μg/ml RNase (Sigma-Aldrich US, R4642) was added. They were mixed well and added with 200 μl of PI (propidium iodide) (Sigma-Aldrich US, P4170) (50 μg/ml) to stain the DNA. Then, the DNA content was measured using flow cytometry (BD)."}, "CDK1, Cyclin B": {"test_system": "CDK1, Cyclin B", "test": "Expression of cell cycle regulatory genes in hPSCs", "conditions": "10 nM, compared to control", "protocol": "(§1) For expression analysis of cell cycle regulatory genes, hPSCs were treated with 10 nM cP1P in the same manner as in Example 1. After hPSCs were washed with PBS, hPSCs were fixed in 4% (w/v) PFA (Santa Cruz Biotechnology US, 30525-89-4) for 5 minutes, or after the protein of hPSC cells was recovered, followed by electrophoresis. The expression of pluripotency genes was analyzed (immunofluorescence analysis or Western blot analysis) using anti-REX1(Abcam UK, ab50828), anti-OCT4(Santa Cruz Biotechnology US, sc-5279), anti-SOX2(Abcam UK, ab97959), anti-NANOG(Cell signaling US, 4893s), anti-E-cadherin(Cell signaling US, 24E10), or anti-SSEA4(Merck millipore US, 90231) antibody. Meanwhile, the control group was tested in the same manner as above, except that hPSCs were treated with DMSO (AppliChem GE, A3672,0100)."}, "hPSCs [4]": {"test_system": "hPSCs", "test": "Apoptosis and cytotoxicity assay (Annexin V / 7-AAD)", "conditions": "5 days; for apoptosis marker, (Annexin V, early apoptosis marker; FIG. 8): DMSO control 0.5%; for apoptosis marker, (7-AAD, late apoptosis marker; FIG. 8): DMSO control 6.2%", "protocol": "In order to confirm apoptosis, hPSCs were treated with 10 nM cP1P in the same manner as in Example 1, hPSCs were separated using cell dissociation buffer (Thermo Fisher Scientific US, A1110501), and harvested cells were washed with DPBS (pH 7.4) 2 times. After centrifuged at 2,000 rpm for 5 minutes. The cells were resuspended at 1×10^5 cells per 100 ul of 1× binding buffer to which 10× binding buffer (0.1 M HEPES, 1.4 M NaCl, 25 mM CaCl2, pH 7.4) was diluted. They were added with 5 ul each of Annexin V (BD bioscience US, 556422) and 7-AAD (BD bioscience U.S. Pat. No. 1,559,925) and mixed slowly. They were cultured for 15 minutes in the dark at room temperature and added with 400 ul of 1× binding buffer. Then, analysis was performed using the Annexin V apoptosis detection kit (BD Pharmingen US, 556547).\nIn order to confirm whether apoptosis and cytotoxicity were induced when hPSCs were treated with cP1P, hPSCs were treated with 10 nM or 100 nM cP1P for 5 days in the same manner as in Example 6, and then Annexin V apoptosis detection kit (BD Pharmingen US, 556547) was used for analysis."}, "[5]": {"test_system": "REX1, E-Cadherin, OCT4, SOX2, NANOG, SSEA-4", "test": "Pluripotency marker expression in hPSCs (immunofluorescence, pluripotent array kit, flow cytometry, Western blot)", "conditions": "100 nM", "protocol": "as §1\nSpecifically, hPSCs were treated with 100 nM cP1P in the same manner as in Example 1. Immunofluorescence analysis was performed in the same manner as in Example 6. Expression of pluripotency-related genes was analyzed using a pluripotent array kit (R&D System US, ARY101). Flow cytometry was performed in the same manner as in Example 6."}, "hPSCs [6]": {"test_system": "hPSCs", "test": "RNA sequencing of hPSCs after long-term (15 passages) treatment", "conditions": "10 nM", "protocol": "Specifically, hPSCs were treated and cultured with 10 nM cP1P or were treated and cultured with DMSO as a control group in the same manner as in Example 1. The passage in which cP1P was first treated was defined as 0 and cultured up to a total of 15 passages. After the cells were recovered, and RNAs were extracted. The RNA sequencing analysis was performed with a next-generation sequencing analyzer (Illumina HiSeq 2500) by DGIST (Daegu Gyeongbuk Institute of Science and Technology) asked to analyze the cells."}},
  "data": [
    {"smiles": "CCCCCCCCCCCCCC[C@@H](O)[C@@H](O)[C@@H](N)COP(=O)(O)O", "note": "[P1P, phytosphingosine-1-phosphate]", "values": [
      {"measurement": "cell proliferation rate increase compared to the control group (FIG. 3)", "setting": "hPSCs (CHA-ESC15)", "value": "about 1.55 times"},
      {"measurement": "apoptosis seen in micrographs (FIG. 2)", "setting": "hPSCs (CHA-ESC15); observed day 7", "value": "apoptosis occurred"}
    ]},
    {"smiles": "CCCCCCCCCCCCC/C=C/[C@@H](O)[C@@H](N)COP(=O)(O)O", "note": "[S1P, sphingosine-1-phosphate]", "values": [
      {"measurement": "cell proliferation rate increase compared to the control group (FIG. 3)", "setting": "hPSCs (CHA-ESC15)", "value": "about 1.25 times"},
      {"measurement": "apoptosis seen in micrographs (FIG. 2)", "setting": "hPSCs (CHA-ESC15); observed day 7", "value": "apoptosis occurred"}
    ]},
    {"smiles": "CCCCCCCCCCCCCC[C@@H](O)[C@H]1OP(=O)(O)OC[C@@H]1N", "note": "[cP1P, o-cyclic phytosphingosine-1-phosphate]", "values": [
      {"measurement": "cell proliferation rate increase compared to the control group (FIG. 3)", "setting": "hPSCs (CHA-ESC15)", "value": 1.78, "unit": "times"},
      {"measurement": "cell proliferation ability (FIG. 2)", "setting": "hPSCs (CHA-ESC15); hPSCs, 50, 100 or 500 nM every 2 days, observed day 7, compared to P1P or S1P", "value": "significantly increased"},
      {"measurement": "undifferentiation ability (alkaline phosphatase staining, FIG. 4)", "setting": "hPSCs [1]", "value": "well maintained"},
      {"measurement": "total number of cells as subculture was performed (FIG. 6)", "setting": "hPSCs [2]", "value": "increased significantly"},
      {"measurement": "increase of cell proliferation compared to the control group (FIG. 7A)", "setting": "hPSCs [3]", "value": "≥ 12", "unit": "%"},
      {"measurement": "number of cells in G2/M phase (FIG. 7B)", "setting": "hPSCs [3]; compared to control, P<0.01", "value": "significantly increased"},
      {"measurement": "number of cells in sub-GO phase (apoptotic cells, FIG. 7B)", "setting": "hPSCs [3]; compared to control, P>0.05", "value": "significantly reduced"},
      {"measurement": "cell proliferation, experimental group (FIG. 7A)", "setting": "hPSCs [3]; control group 48%", "value": 60, "unit": "%"},
      {"measurement": "expression of genes regulating the cell cycle (CDK1, Cyclin B; FIGS. 7C to 7E)", "setting": "CDK1, Cyclin B", "value": "increased"},
      {"measurement": "apoptosis compared to the control group (FIG. 8)", "setting": "hPSCs [4]; 10 nM or 100 nM", "value": "reduced"},
      {"measurement": "cytotoxicity compared to the control group (FIG. 8)", "setting": "hPSCs [4]; 10 nM or 100 nM", "value": "significantly lowered"},
      {"measurement": "apoptosis marker, (Annexin V, early apoptosis marker; FIG. 8)", "setting": "hPSCs [4]; 10 nM", "value": 0.9, "unit": "%"},
      {"measurement": "apoptosis marker, (7-AAD, late apoptosis marker; FIG. 8)", "setting": "hPSCs [4]; 10 nM", "value": 3.9, "unit": "%"},
      {"measurement": "apoptosis marker, (Annexin V, early apoptosis marker; FIG. 8)", "setting": "hPSCs [4]; 100 nM", "value": 1.9, "unit": "%"},
      {"measurement": "apoptosis marker, (7-AAD, late apoptosis marker; FIG. 8)", "setting": "hPSCs [4]; 100 nM", "value": 5.3, "unit": "%"},
      {"measurement": "expression of pluripotency marker genes REX1, E-Cadherin, OCT4 and SOX2 (immunofluorescence, FIG. 9A)", "setting": "[5]; compared to control", "value": "increased"},
      {"measurement": "protein expression of OCT4 and E-Cadherin (FIG. 9D)", "setting": "[5]; compared to control", "value": "increased"},
      {"measurement": "spots of pluripotency-related genes OCT4, NANOG, SOX2 and E-Cadherin (array, FIG. 9B)", "setting": "[5]; compared to control", "value": "detected to be high"},
      {"measurement": "protein expression of SSEA-4 (FIG. 9C)", "setting": "[5]; control 68.8%", "value": 82.2, "unit": "%"},
      {"measurement": "protein expression of E-Cadherin (FIG. 9C)", "setting": "[5]; control 81.8%", "value": 85.6, "unit": "%"},
      {"measurement": "protein expression of REX1 (FIG. 9C)", "setting": "[5]; control 86.8%", "value": 95.7, "unit": "%"},
      {"measurement": "protein expression of OCT4 (FIG. 9C)", "setting": "[5]; control 95.2%", "value": 96.5, "unit": "%"},
      {"measurement": "cluster 5 (C5) gene expression (cell development, embryo development, cell proliferation genes)", "setting": "hPSCs [6]; decreased in untreated control", "value": "stably maintained"},
      {"measurement": "cluster 2 (C2) gene expression (oxidative stress and apoptotic process genes)", "setting": "hPSCs [6]; increased in untreated control", "value": "decreased"},
      {"measurement": "gene expression changes (DEG) compared with passage 0 (FIG. 10)", "setting": "hPSCs [6]; no cP1P-treated group 575", "value": 197}
    ]}
  ]
}
